From patent US20080200403A1, “9A-Carbamoyl and Thiocarbamoyl Azalides with Anti-Inflammatory Activity” (GLAXOSMITHKLINE, priority 2005, published 2008)
Where two headings read alike, the source gives them in different places.

What was measured:
[1] = system: TNF-α; experiment: Inhibition of TNF-α production by stimulated human peripheral blood leukocytes in vitro; format: cell-based; settings: PBL
Description: (§1) Test substances used in in vitro experiments were dissolved in dimethyl sulfoxide (DMSO) (Kemika, Croatia) at concentrations of 50 mM and 10 mM, and were further diluted to final concentrations of 50 μM and 10 μM in 1 mL Dulbecco's modified Eagle medium (DMEM) supplemented with 1% heat inactivated fetal bovine serum (FBS), 1% L-glutamine, 50 U/ml penicillin, 50 μg/ml streptomycin and 2.5 μg/mL Fungizone (amphotericin B). Media and all media supplements were purchased from Gibco, Australia, except the FBS was purchased from Sigma, USA.
(§2) Peripheral blood leukocytes (PBL) were obtained from venous blood of healthy volunteers by sedimentation on 2% dextran T-500 (Amersham Biosciences, USA) and subsequent centrifugations of leukocyte rich plasma.
(§3) Peripheral blood leukocytes (PBL), isolated as described above, were seeded in a 48-well plate at a concentration of 3 to 5×10^6 cell per well in culture medium consisting of RPMI 1640 medium (Institute of Immunology, Croatia) supplemented with 10% heat-inactivated fetal calf serum (FCS, Biowhittaker, USA), 100 U/ml penicillin (Gibco, Australia), 100 μg/ml streptomycin (Gibco, Australia) and 2 mM L-glutamine (Gibco, Australia), and preincubated with the test compounds for 2 h at 37° C., in an atmosphere of 5% CO2, and 90% humidity. Then, stimuli (Sigma, USA) were added to a final concentration of 2 μg/mL lipopolysaccharide (LPS), 1 μg/mL phorbol 12-myristate 13-acetate (PMA) or 120 μg/mL zymosan. Samples were incubated overnight under conditions described above. At the end of incubation, the supernatants were transferred to eppendorf tubes and centrifuged for 10 min at 1500×g. Concentrations of human TNF-α, IL-1β, IL-6 and IL-8 were determined in cell supernatants by sandwich ELISA, using capture and detection antibodies (R&D Systems, Minneapolis, Minn.) according to the manufacturer's recommendations.
(§4) Inhibition (as percentage) was calculated using the following formula: % inhibition=(1−concentration of cytokines in sample/concentration of cytokines in positive control)×100. The positive control refers to stimulated samples, not treated with substances.

[2] = system: IL-1α; experiment: Inhibition of IL-1 production by stimulated human peripheral blood leukocytes in vitro; format: cell-based; settings: PBL
[3] = system: IL-6; experiment: Inhibition of IL-6 production by stimulated human peripheral blood leukocytes in vitro; format: cell-based; settings: PBL
Description: as §1, §2, §3, §4

[4] = system: IL-8; experiment: Inhibition of IL-8 production by stimulated human peripheral blood leukocytes in vitro; format: cell-based; settings: PBL
Description: as §1, §2, §3, §4

[5] = system: human peripheral blood mononuclear cells (PBMC); experiment: Human T-cell proliferation in vitro (3H-thymidine incorporation); format: cell-based
Description: Influence of substances at two different concentrations (50 μM and 10 μM) on cell proliferation of human peripheral blood mononuclear cells (PBMC) was assessed.
Heparinized peripheral blood was obtained from healthy donors, and PBMC were isolated by Histopaque 1077 (Sigma, USA) density centrifugation at 400×g for 30 minutes. 5×10^4 cells/well were cultured for 3 days in the RPMI medium as described above, in the presence (positive control) or absence (negative control) of stimulators [PHA (2.5 μg/mL) (Sigma, USA), or both PMA (10 ng/mL) (Sigma, USA) and ionomycin (500 ng/mL) (Calbiochem, USA)], and in the presence of the test compounds, at 37° C. in an atmosphere of 5% CO2 and 90% humidity. The cells were pulsed with 1 μCi of ^3H-thymidine (Amersham, USA) per well during the last 18 h of the culture, and were harvested on the 96-well filter (Packard Bioscience, USA) using a multiple cell harvester (Packard, USA). The incorporation of ^3H-thymidine in activated cells were measured using TopCount NXT (Packard, USA).
Inhibition (as percentage) was calculated using the following formula: % inhibition=(1−(^3H)thymidine incorporation expressed in counts per minute (cpm) in sample/(^3H)thymidine incorporation expressed in cpm in positive control)×100
where positive control refers to stimulated samples, not treated with substances.

[6] = system: human granulocytes; experiment: Oxidative burst inhibition assay on granulocytes (luminol); format: cell-based; settings: for inhibition at 12.5 µM / inhibition at 50 µM: Homo sapiens
Description: (§5) Granulocytes were obtained from heparinized whole blood using density gradient centrifugation. Erythrocytes were sedimented on 3% dextran T-500 (Amersham Pharmacia Biotech AB, Uppsala, Sweden). Leukocytes were centrifuged on Ficoll (Amersham Pharmacia Biotech AB, Uppsala, Sweden) for 35 min at 600 g at 20° C. The pellet of granulocytes was cleared from remaining erythrocytes by a brief hypotonic lysis.
The effect of compounds on oxidative burst was investigated in vitro with oxidative burst assay in human granulocytes, isolated as described above. Assay was done in 96 well plate. Blood was obtained from healthy volunteers (Transfusion Center, Croatia) and human granulocytes were isolated by dextran sedimentation and ficoll extraction method, as described above. In each well 50000 isolated granulocytes were suspended in 100 μL of DMEM. Final concentrations of the tested compounds were 50 and 12.5 μM. Than, 50 μL of luminol (c=0.25 mg/mL) was added. Luminol as a detector of oxidative burst react with superoxide and light is produced as one of the reaction products. Subsequently, 50 μL of stimuli, phorbol-12-myristate acetate (PMA) (c=33 ng/mL) or Zymosan (c=120 μg/mL), were added.

[7] = system: granulocytes; experiment: Inhibition of degranulation of granulocytes (elastase release); format: cell-based, human; settings: Homo sapiens, compound 50 μM, read-out: Percentage of inhibition of degranulation of granulocytes
Description: as §5
1×10^6 granulocytes, isolated as described above, were resuspended in RPMI-1640 medium (Institute of Immunology, Croatia), and were incubated with 10 or 50 μM of test compound together with cytochalasine B (5 μg/mL) for 2 h at 37° C. Degranulation then was induced by the addition of 0.1 μM fMLP (Sigma, USA) or 0.5 μM A23187 (Calbiochem, USA). The activity of free neutrophil elastase was determined with a chromogenic substrate specific for human neutrophil elastase, such as n-methoxysuccinyl-1-alanyl-1-alanyl-1-prolyl-lvalyl-p-niytoanlide (Sigma Chemical Company, St Louis, Mo., USA) Elastase activity, as a marker of primary granules, was assessed in supernatant using a spectrophotometer at an absorbance of 405 nm. Results are expressed as the percent of inhibition of degranulation in unstimulated cells, and in stimulated cells treated with fMLP or A23187.

[8] = zymosan stimulated, compound 10 μM
[9] = zymosan stimulated, compound 50 μM

CCC1OC(=O)C(C)C(OC2CC(C)(OC)C(O)C(C)O2)C(C)C(OC2OC(C)CC(N(C)C)C2O)C(C)(O)CC(C)CN(C(=S)Nc2ccc(Cl)cc2)C(C)C(O)C1(C)O (centres unmarked) [Compound 2]
Percentage of inhibition of TNF-α production ([1]; LPS stimulated, compound 10 μM): 37%
Percentage of inhibition of TNF-α production ([1]; LPS stimulated, compound 50 μM): 100%
Percentage of inhibition of TNF-α production ([1]; PMA stimulated, compound 10 μM): 60%
Percentage of inhibition of TNF-α production ([1]; PMA stimulated, compound 50 μM): 99%
Percentage of inhibition of TNF-α production [1, 8]: 78%
Percentage of inhibition of TNF-α production [1, 9]: 98%
Percentage of inhibition of IL-1α production ([2]; LPS stimulated, compound 10 μM): 77%
Percentage of inhibition of IL-1α production ([2]; LPS stimulated, compound 50 μM): 98%
Percentage of inhibition of IL-1α production ([2]; PMA stimulated, compound 10 μM): 18%
Percentage of inhibition of IL-1α production ([2]; PMA stimulated, compound 50 μM): 97%
Percentage of inhibition of IL-1α production [2, 8]: 92%
Percentage of inhibition of IL-1α production [2, 9]: 98%
Percentage of inhibition of IL-6 production ([3]; LPS stimulated, compound 10 μM): 75%
Percentage of inhibition of IL-6 production ([3]; LPS stimulated, compound 50 μM): 100%
Percentage of inhibition of IL-6 production ([3]; PMA stimulated, compound 10 μM): 49%
Percentage of inhibition of IL-6 production ([3]; PMA stimulated, compound 50 μM): 100%
Percentage of inhibition of IL-6 production [3, 8]: 90%
Percentage of inhibition of IL-6 production [3, 9]: 100%
Percentage of inhibition of IL-8 production ([4]; LPS stimulated, compound 10 μM): 79%
Percentage of inhibition of IL-8 production ([4]; LPS stimulated, compound 50 μM): 88%
Percentage of inhibition of IL-8 production ([4]; PMA stimulated, compound 10 μM): 27%
Percentage of inhibition of IL-8 production ([4]; PMA stimulated, compound 50 μM): 58%
Percentage of inhibition of IL-8 production [4, 8]: 61%
Percentage of inhibition of IL-8 production [4, 9]: 51%
Percentage of inhibition of proliferation of stimulated PBMC ([5]; PHA stimulated, compound 10 μM): 6%
Percentage of inhibition of proliferation of stimulated PBMC ([5]; PHA stimulated, compound 50 μM): 97%
Percentage of inhibition of proliferation of stimulated PBMC ([5]; PMA + ionomycin stimulated, compound 10 μM): 35%
Percentage of inhibition of proliferation of stimulated PBMC ([5]; PMA + ionomycin stimulated, compound 50 μM): 99%
% inhibition of Oxidative burst PMA ([6]; PMA stimulated granulocytes, compound 12.5 μM): 19%
% inhibition of Oxidative burst PMA ([6]; PMA stimulated granulocytes, compound 50 μM): 82%
% inhibition of Oxidative burst Zymosan ([6]; Zymosan stimulated granulocytes, compound 12.5 μM): 24%
% inhibition of Oxidative burst Zymosan ([6]; Zymosan stimulated granulocytes, compound 50 μM): 98%

CC[C@H]1OC(=O)[C@H](C)[C@@H](O[C@H]2C[C@@](C)(OC)[C@@H](O)[C@H](C)O2)[C@H](C)[C@@H](O[C@@H]2O[C@H](C)C[C@H](N(C)C)[C@H]2O)[C@](C)(O)C[C@@H](C)C(=O)[C@H](C)[C@@H](O)[C@]1(C)O [Erythromycin, erythromycin]
inhibition at 50 µM ([7]; A23187 0.5 μM stimulated): 0%
inhibition at 50 µM ([7]; fMLP 0.1 μM stimulated): 23%
inhibition at 12.5 µM ([6]; PMA stimulated granulocytes, compound 12.5 μM, read-out: % inhibition of Oxidative burst PMA): 0%
inhibition at 50 µM ([6]; PMA stimulated granulocytes, compound 50 μM, read-out: % inhibition of Oxidative burst PMA): 0%
inhibition at 12.5 µM ([6]; Zymosan stimulated granulocytes, compound 12.5 μM, read-out: % inhibition of Oxidative burst Zymosan): 6%
inhibition at 50 µM ([6]; Zymosan stimulated granulocytes, compound 50 μM, read-out: % inhibition of Oxidative burst Zymosan): 41%
